Experimental data as given in patent US20250120975A1, “INTEGRIN INHIBITORS FOR TREATMENT OF PRIMARY SCLEROSING CHOLANGITIS” (Pliant Therapeutics, Inc., priority 2023, published 2025).
“Also recorded” adds a separate entry of the source.

How the values were obtained:
[1] = system: BALB/c.Mdr2−/− mouse model of biliary fibrosis; experiment: Connective tissue (picrosirius red) histology; type: in vivo; conditions: 300 and 1000 mg/kg, 6 weeks
From the text: The tissue source is BALBc.Mdr2-/−male mice that were 6 weeks old. The Mdr2(abcb4)−/− mouse model of sclerosing cholangitis has been previously described and is a model of spontaneously progressive hepatic fibrosis in mice with deletion of the biliary phospholipid flippase on fibrosis-susceptible background (Mdr2(abcb4)^−/−. BALB/c mouse). See N. Ikenaga, et al. (2015) Am J Pathol. 185 (2): 325-334, the entire contents of which are hereby incorporated by reference in their entirety.
(§1) (S)-4-((2-methoxyethyl)(4-(5,6,7,8-tetrahydro-1,8-naphthyridin-2-yl)butyl)amino)-2-(quinazolin-4-ylamino)butanoic acid (or PBS) was dosed once daily orally at 100 mg/kg, 300 mg/kg or 1000 mg/kg (see Table B-2) starting at 6 weeks after birth of the subject and continuing for 6 weeks. All animals were euthanized and necropsied at the end of week 12.
Connective tissue stains were carried out to morphometrically assess fibrosis, through analysis of 10 high power fields per animal.

[2] = Effect of food on pharmacokinetics of the solution; type: in vivo
[3] = system: subjects with PSC and suspected liver fibrosis; experiment: Phase 2a INTEGRIS-PSC: Itch Numerical Rating Scale (NRS); type: in vivo, human
Method: In one embodiment is provided a method of reducing itch or pruritus (chronic itching). Itch can be quantified on a 0-10 scale using the Peak Pruritus Numerical Rating Scale (NRS), where 0 is “no itch” and 10 is “worst imaginable itch” over the past 24 hours (Yosipovitch et al., British Journal of Dermatology (2019) 181:761-769, incorporated by reference herein in its entirety). In embodiments, a method of reducing pruritus in a human who has fibrotic liver disease is provided, comprising administering to the human(S)-4-((2-methoxyethyl)(4-(5,6,7,8-tetrahydro-1,8-naphthyridin-2-yl)butyl)amino)-2-(quinazolin-4-ylamino)butanoic acid, or a pharmaceutically acceptable salt thereof. In embodiments, a method of reducing (e.g., ameliorating) pruritus in a human who has fibrotic liver disease (e.g., primary sclerosing cholangitis) is provided, comprising administering to the human(S)-4-((2-methoxyethyl)(4-(5,6,7,8-tetrahydro-1,8-naphthyridin-2-yl)butyl)amino)-2-(quinazolin-4-ylamino)butanoic acid, or a pharmaceutically acceptable salt thereof, as compared to a human who has not been administered(S)-4-((2-methoxyethyl)(4-(5,6,7,8-tetrahydro-1,8-naphthyridin-2-yl)butyl)amino)-2-(quinazolin-4-ylamino)butanoic acid, or a pharmaceutically acceptable salt thereof. […] In further embodiments, pruritus is reduced as measured by a change in itch numerical rating scale from between about 0.8 and about-0.2 at about 12 weeks following a first administration of (S)-4-((2-methoxyethyl)(4-(5,6,7,8-tetrahydro-1,8-naphthyridin-2-yl)butyl)amino)-2-(quinazolin-4-ylamino)butanoic acid, or a pharmaceutically acceptable salt thereof to the human. […]

[4] = Plasma and liver concentrations in BALB/c.Mdr2−/− mice at harvest; type: in vivo, mouse
Method: as §1
Plasma samples were assayed by a qualified non-GLP bioanalytical method. Liver samples were homogenized in five volumes of ice-cold water. For plasma and liver homogenate, 20 μL of sample was extracted with 100 μL methanol: acetonitrile (5:95 v: v) containing 10 ng/mL internal standard. The solution was centrifuged at 4000 RPM for 5 minutes and 70 μL of supernatant transferred to injection plate containing 70 μl water. An aliquot of 10 μL was injected to a Sciex 4000 system. Concentrations of (S)-4-((2-methoxyethyl)(4-(5,6,7,8-tetrahydro-1,8-naphthyridin-2-yl)butyl)amino)-2-(quinazolin-4-ylamino)butanoic acid in mouse plasma and liver homogenate were determined by using Analyst 1.6 software (AB Sciex, Foster City, CA). […] Using this bioanalytical method and four-times dilution of the samples, (S)-4-((2-methoxyethyl)(4-(5,6,7,8-tetrahydro-1,8-naphthyridin-2-yl)butyl)amino)-2-(quinazolin-4-ylamino)butanoic acid can be quantified in the range of 0.5-8000 ng/mL in plasma and liver homogenate.

Q: What does the source list for `COCCN(CCCCc1ccc2c(n1)NCCC2)CC[C@H](Nc1ncnc2ccccc12)C(=O)O` [Bexotegrast, (S)-4-((2-methoxyethyl)(4-(5,6,7,8-tetrahydro-1,8-naphthyridin-2-yl)butyl)amino)-2-(quinazolin-4-ylamino)butanoic acid]?
A: fibrosis by picrosirius red histological staining [1]: significant reductions; decrease of AUCinf in the fed state relative to the fasted state [2]: 37%; decrease of Cmax in the fed state relative to the fasted state [2]: 52%; Itch Numerical Rating Scale (NRS) score ([3]; 320 mg, over 24 weeks, relative to an increase on placebo, Example B-5): did not increase; also recorded: stable score; itch (NRS) relative to placebo ([3]; 40, 80, 160 mg, Week 12, statistical significance for the 160 mg dose, Example B-3): dose dependent reductions; itch (NRS) relative to the placebo ([3]; 40-320 mg, Week 12, statistical significance for the 160 mg, 320 mg groups, Example B-4): dose-dependent reductions; plasma and liver concentrations, comparison of dose groups ([4]; 100, 300 and 1000 mg/kg PO/QD, 6 weeks): higher levels in the 1000 mg/kg group; Kp at 6 weeks ([4]; mouse, liver (relative to plasma), BALB/c.Mdr2−/− mice, after 6 weeks of PO/QD dosing, at harvest, read-out: Liver levels (ng/g) relative to the levels seen in the plasma (ng/mL)): 3 to 5
